What was measured:
[1] = tested on: ZAC/m5-HT3A-II; test: TEVC in oocytes expressing ZAC/m5-HT3A-II chimera; format: cell-based, mouse/human; settings: Zn^2+ 10 mM; H^+ pH 4.0; data not shown
Protocol: (§1) The recordings were performed at room temperature.

[2] = target: T1, ZAC^D118A (Homo sapiens, UniProt Q401N2, A152T/D142A); test: TEVC in oocytes, ZAC D118A mutant; format: cell-based
T1 construct: expressed in transfected cells; host or cells: Xenopus oocytes injected with cRNA (pUNIV vector)
Protocol: as §1
(§2) Analysis of the data from the TEVC recordings were performed using Clampfit software version 10.5 (Molecular Devices, Crawley, UK) and GraphPad Prism version 7.0c (GraphPad Software, La Jolla, CA). Unless otherwise stated, the inward currents induced by agonists in oocytes were normalized to the maximal response elicited by a specific agonist (agonist Imax) on each oocyte. Concentration-response and concentration-inhibition curves were fitted in GraphPad Prism by nonlinear regression using the equation for sigmoidal dose-response with variable slope. Each data point represents the mean ± S.E.M. value of recordings performed on at least five oocytes in total from at least two different batches. […] The null hypothesis was rejected at P < 0.05, and the differences between the means were analyzed by Tukey’s multiple comparisons test.
(§3) The putative involvement of candidate residues in Clusters 1, 2, 3 and 4 in Zn^2+ binding to ZAC was investigated in by an elaborate alanine mutagenesis scanning. […] The determined IpH 4.0 value was used in part as a control and in part to enable the distinction of ZAC mutants non-responsive to Zn^2+ due to elimination of their ability to bind the metal ion from those where the mutation had eliminated cell surface expression and/or disrupted overall functionality of the receptor complex. […]

[3] = tested on: ZAC^FPM/hα1-Gly; test: TEVC in oocytes, Cys-loop modified chimera ZAC^FPM/hα1-Gly; format: cell-based, human; settings: data not shown
Protocol: as §1
To probe the effects of exchanges of regions involved in the ECD/TMD cross-talk between the two CLRs fused in a chimera on its functionality, we constructed 12 additional chimeras, three for each of the four original chimeras (Fig. 1A). Inspired by the similar modifications that have been introduced in a functional GLIC/hα1-Gly chimera, we swapped one or both of two specific regions: the three-residue FPX (Phe-Pro-X) motif in the Cys-loop of the ECD (FPR, FPF and […] in ZAC, m5-HT3A and hα1 GlyR, respectively), which is known to protude into proximity of the M2-M3 linker during the ECD/TMD cross-talk, and the extracellular C-terminus of the TMD, which differs substantially in both amino acid sequence and length between ZAC and the two classical CLRs combined with it in the chimeras (Fig. 4B). […] In light of this, it was not surprising that the four chimeras comprising exchanges of both the FPX motif and the C-terminus also were non-functional (data not shown).

[4] = tested on: ZAC^L9′V, ZAC^L9′I and ZAC^L9′T; test: TEVC in oocytes, L9′V, L9′I and L9′T mutants (collective statement); format: cell-based, human; settings: compared to WT ZAC; range over the three mutants
Protocol: as §1
(§4) Analysis of the data from the TEVC recordings were performed using Clampfit software version 10.5 (Molecular Devices, Crawley, UK) and GraphPad Prism version 7.0c (GraphPad Software, La Jolla, CA). Unless otherwise stated, the inward currents induced by agonists in oocytes were normalized to the maximal response elicited by a specific agonist (agonist Imax) on each oocyte. Concentration-response and concentration-inhibition curves were fitted in GraphPad Prism by nonlinear regression using the equation for sigmoidal dose-response with variable slope. Each data point represents the mean ± S.E.M. value of recordings performed on at least five oocytes in total from at least two different batches. For the data where statistical analysis was performed, a one-way ANOVA was used. The null hypothesis was rejected at P < 0.05, and the differences between the means were analyzed by Tukey’s multiple comparisons test.

[5] = target: T2, ZAC^D105A/E130A (Homo sapiens, UniProt Q401N2, A152T/D129A/E154A); test: TEVC in oocytes, ZAC D105A/E130A mutant; format: cell-based; settings: 10 mM Zn^2+; data not shown
T2 construct: expressed in transfected cells; host or cells: Xenopus oocytes injected with cRNA (pUNIV vector)
Protocol: as §1, §2, §3

[6] = target: T3, ZAC^L9′V (Homo sapiens, UniProt Q401N2, A152T/L270V); test: TEVC in oocytes, ZAC L9′V mutant; format: cell-based; settings: agonist; n = 8
T3 construct: expressed in transfected cells; host or cells: Xenopus oocytes (cRNA injection, pUNIV vector)
T3 sequence (Q401N2 26-412 A152T/L270V): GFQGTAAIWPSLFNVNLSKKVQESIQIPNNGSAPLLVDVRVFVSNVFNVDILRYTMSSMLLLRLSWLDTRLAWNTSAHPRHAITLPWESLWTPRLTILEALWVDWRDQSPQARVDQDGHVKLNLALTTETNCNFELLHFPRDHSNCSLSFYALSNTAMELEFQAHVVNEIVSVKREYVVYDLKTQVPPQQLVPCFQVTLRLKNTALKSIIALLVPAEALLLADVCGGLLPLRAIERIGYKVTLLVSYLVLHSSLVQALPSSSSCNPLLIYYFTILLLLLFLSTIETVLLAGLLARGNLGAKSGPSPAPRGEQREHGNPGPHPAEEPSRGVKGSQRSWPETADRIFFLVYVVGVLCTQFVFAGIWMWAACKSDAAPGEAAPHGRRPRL
Protocol: as §1, §4

[7] = target: T4, ZAC^H79A/H120F (Homo sapiens, UniProt Q401N2, A152T/H103A/H144F); test: TEVC in oocytes, ZAC H79A/H120F mutant; format: cell-based; settings: parallel recordings, same oocyte batches
T4 construct: expressed in transfected cells; host or cells: Xenopus oocytes (cRNA injection, pUNIV vector)
Protocol: as §1, §2, §3

T4 sequence (Q401N2 26-412 H103A/H144F/A152T): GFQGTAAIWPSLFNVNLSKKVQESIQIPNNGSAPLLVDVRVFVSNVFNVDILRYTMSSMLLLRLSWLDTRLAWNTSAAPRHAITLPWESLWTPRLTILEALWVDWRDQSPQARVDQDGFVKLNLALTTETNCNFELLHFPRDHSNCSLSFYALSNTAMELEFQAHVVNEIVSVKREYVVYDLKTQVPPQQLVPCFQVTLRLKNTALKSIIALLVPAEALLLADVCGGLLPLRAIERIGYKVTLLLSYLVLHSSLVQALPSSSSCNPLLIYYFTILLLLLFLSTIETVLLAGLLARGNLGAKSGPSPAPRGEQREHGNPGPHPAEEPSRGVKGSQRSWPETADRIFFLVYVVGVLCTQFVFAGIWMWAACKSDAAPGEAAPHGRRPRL
T1 sequence (Q401N2 26-412 D142A/A152T): as the sequence (Q401N2 26-412 H103A/H144F/A152T) above, with A78H, D117A, F119H counted along it
T2 sequence (Q401N2 26-412 D129A/A152T/E154A): as the sequence (Q401N2 26-412 H103A/H144F/A152T) above, with A78H, D104A, F119H, E129A counted along it

Question: What does the source list for `[Cl-].[Cl-].[Zn+2]` [Zn^2+, ZnCl2]?
Answer: agonist-evoked current [1]: did not evoke significant currents; agonist properties compared to WT ZAC [2]: did not differ substantially; concentration-response relationship compared to ZAC/hα1-Gly [3]: not significantly different; left-shift of Zn^2+ concentration-response relationship [4]: 8–30 fold; agonist responsiveness [5]: non-responsive; EC50 [6]: 13 µM; nH ± S.E.M. (Hill slope) [6]: 0.7 ± 0.3; pEC50 ± S.E.M. [6]: 4.88 ± 0.22; ability to elicit ZAC signalling compared to WT ZAC [7]: did not appear to impair
